US20230365592A1 (Agios Pharmaceuticals, Inc., priority 2022, published 2023)

The compounds below were run against T1, human PAH with the R408W mutation (Homo sapiens, UniProt P00439, R408W) (assay: Cell Based Phenylalanine Flux Assay). Details: A375 cells expressing R408W PAH; 24 hrs with compound, then 20 µM sepiapterin and 800 µM 13C9,15N-Phenylalanine for 4 hours; 13C-Tyrosine by LC-MS; average where tested multiple times; read-out: AC50.
T1 construct: expressed in transfected cells
T1 sequence (P00439 1-452 R408W): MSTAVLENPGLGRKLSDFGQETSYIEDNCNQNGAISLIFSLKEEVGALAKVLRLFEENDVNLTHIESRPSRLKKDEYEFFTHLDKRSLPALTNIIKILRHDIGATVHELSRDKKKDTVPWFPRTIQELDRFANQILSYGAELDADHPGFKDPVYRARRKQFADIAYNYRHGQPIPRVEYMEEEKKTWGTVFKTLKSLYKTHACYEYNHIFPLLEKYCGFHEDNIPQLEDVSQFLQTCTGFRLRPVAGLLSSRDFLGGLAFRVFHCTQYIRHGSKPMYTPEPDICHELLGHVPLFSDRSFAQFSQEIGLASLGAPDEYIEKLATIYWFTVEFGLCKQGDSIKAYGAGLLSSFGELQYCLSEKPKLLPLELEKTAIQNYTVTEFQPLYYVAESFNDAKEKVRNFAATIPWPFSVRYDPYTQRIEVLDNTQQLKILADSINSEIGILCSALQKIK
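Note: after compound treatment, cells received sepiapterin plus isotope-labelled Phenylalanine for 4 hours, then labelled Tyrosine in the medium was quantified, 10-point 2-fold dilution series run in duplicate.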

Compound | AC50 [nM]
CC(C)(F)c1nnc(C(=O)N2CCc3[nH]cnc3C2c2cc3ccccn3n2)o1 (stereo not drawn) | 1000 to 5000
CC(C)(O)c1nnc(C(=O)N2CCc3[nH]cnc3C2c2cc3cccc(Cl)n3n2)o1 (stereo not drawn) | 1000 to 5000
O=C(c1cn[nH]c1Cl)N1CCc2[nH]cnc2C1c1cc2ccccn2n1 (stereo not drawn) | 1000 to 5000
Fc1cccc2cc(C3c4nc[nH]c4CCN3c3ncccn3)nn12 (stereo not drawn) | 1000 to 5000
FC(F)(F)c1cccn2nc([C@@H]3c4nc[nH]c4CCN3c3nnc(-c4ncccn4)o3)cc12 (single isomer, unassigned) | 1000 to 5000
Cc1cccn2nc(C3c4nc[nH]c4CCN3C(=O)c3oc(-c4ccn(C)n4)nc3C(F)F)cc12 (stereo not drawn) | 1000 to 5000
Cc1ccc2c(C(=O)N3CCc4[nH]cnc4C3c3cc4cccc(C(F)F)n4n3)cnn2c1 (stereo not drawn) | 1000 to 5000
Fc1ccc(-c2nnc(N3CCc4[nH]cnc4C3c3cc4ccccn4n3)o2)nc1 (stereo not drawn) | 1000 to 5000

Same assay, conditions: A375 cells expressing human PAH R408W; 24 hrs compound incubation; 13C-Tyrosine by LC-MS; average where tested multiple times; read-out: AC50

Compound | AC50 [nM]
Nc1cnc(N2CCc3[nH]cnc3[C@H]2c2cc3c(Cl)cccn3n2)nc1 [Example 1873, (S)-2-(4-(4-chloropyrazolo[1,5-a]pyridin-2-yl)-1,4,6,7-tetrahydro-5H-imidazo[4,5-c]pyridin-5-yl)pyrimidin-5-amine] | 500 to 1000
Cn1ccc(-c2nnc(C(=O)N3CCc4[nH]cnc4[C@@H]3c3cc4c(F)cccn4n3)s2)n1 [Example 1994, (R)-(4-(4-fluoropyrazolo[1,5-a]pyridin-2-yl)-1,4,6,7-tetrahydro-5H-imidazo[4,5-c]pyridin-5-yl)(5-(1-methyl-1H-pyrazol-3-yl)-1,3,4-thiadiazol-2-yl)methanone] | > 5000
CC(C)c1cccn2nc([C@@H]3c4nc[nH]c4CCN3c3nnc(C(F)F)o3)cc12 [Example 2085, (S)-2-(difluoromethyl)-5-(4-(4-isopropylpyrazolo[1,5-a]pyridin-2-yl)-1,4,6,7-tetrahydro-5H-imidazo[4,5-c]pyridin-5-yl)-1,3,4-oxadiazole] | < 500
Cn1cc(-c2nnc(C(=O)N3CCc4[nH]cnc4[C@H]3c3cc4ccccn4n3)s2)cn1 [Example 2045, (S)-(5-(1-methyl-1H-pyrazol-4-yl)-1,3,4-thiadiazol-2-yl)(4-(pyrazolo[1,5-a]pyridin-2-yl)-1,4,6,7-tetrahydro-5H-imidazo[4,5-c]pyridin-5-yl)methanone] | 500 to 1000
Cc1nnc(N2CCc3[nH]cnc3[C@H]2c2cc3c(C(C)C)cccn3n2)o1 [Example 2083, (S)-2-(4-(4-isopropylpyrazolo[1,5-a]pyridin-2-yl)-1,4,6,7-tetrahydro-5H-imidazo[4,5-c]pyridin-5-yl)-5-methyl-1,3,4-oxadiazole] | < 500
Fc1cccc(N2CCc3[nH]cnc3[C@H]2c2cc3c(F)cccn3n2)n1 [Example 1955, (S)-4-(4-fluoropyrazolo[1,5-a]pyridin-2-yl)-5-(6-fluoropyridin-2-yl)-4,5,6,7-tetrahydro-1H-imidazo[4,5-c]pyridine] | < 500
Cn1cc(-c2nnc(C(=O)N3CCc4[nH]cnc4[C@@H]3c3cc4c(F)cccn4n3)s2)cn1 [Example 2019, (R)-(4-(4-fluoropyrazolo[1,5-a]pyridin-2-yl)-1,4,6,7-tetrahydro-5H-imidazo[4,5-c]pyridin-5-yl)(5-(1-methyl-1H-pyrazol-4-yl)-1,3,4-thiadiazol-2-yl)methanone] | > 5000
FC(F)c1cccn2nc([C@H]3c4nc[nH]c4CCN3c3cncc(Cl)n3)cc12 [Example 1828, (R)-5-(6-chloropyrazin-2-yl)-4-(4-(difluoromethyl)pyrazolo[1,5-a]pyridin-2-yl)-4,5,6,7-tetrahydro-1H-imidazo[4,5-c]pyridine] | 1000 to 5000
FC(F)c1cccn2nc([C@@H]3c4nc[nH]c4CCN3c3cncc(Cl)n3)cc12 [Example 1829, (S)-5-(6-chloropyrazin-2-yl)-4-(4-(difluoromethyl)pyrazolo[1,5-a]pyridin-2-yl)-4,5,6,7-tetrahydro-1H-imidazo[4,5-c]pyridine] | < 500

Same assay, conditions: A375 cells expressing human R408W PAH; 24 hrs compound incubation; 13C-Tyrosine by LC-MS; average where tested multiple times; read-out: AC50

Compound | AC50 [nM]
COc1ccc2c(C(=O)N3CCc4[nH]cnc4[C@H]3c3cc4cccc(F)n4n3)cnn2c1 [Example 1720, (S)-(4-(7-fluoropyrazolo[1,5-a]pyridin-2-yl)-6,7-dihydro-1H-imidazo[4,5-c]pyridin-5(4H)-yl)(6-methoxypyrazolo[1,5-a]pyridin-3-yl)methanone] | 500 to 1000
Cc1ccc2cc([C@@H]3c4nc[nH]c4CCN3C(=O)c3nnc(C4CC4)o3)nn2c1 [Example 966, (S)-(5-cyclopropyl-1,3,4-oxadiazol-2-yl)(4-(6-methylpyrazolo[1,5-a]pyridin-2-yl)-6,7-dihydro-1H-imidazo[4,5-c]pyridin-5(4H)-yl)methanone] | 500 to 1000
COc1cccn2nc([C@@H]3c4nc[nH]c4CCN3C(=O)c3nnc(-c4ccn(C(F)(F)F)n4)o3)cc12 [Example 1652, (S)-(4-(4-methoxypyrazolo[1,5-a]pyridin-2-yl)-6,7-dihydro-1H-imidazo[4,5-c]pyridin-5(4H)-yl)(5-(1-(trifluoromethyl)-1H-pyrazol-3-yl)-1,3,4-oxadiazol-2-yl)methanone] | 500 to 1000
COc1cccn2nc([C@H]3c4nc[nH]c4CCN3C(=O)c3nnc(C4CC4)o3)cc12 [Example 1169, (R)-(5-cyclopropyl-1,3,4-oxadiazol-2-yl)(4-(4-methoxypyrazolo[1,5-a]pyridin-2-yl)6,7-dihydro-1H-imidazo[4,5-c]pyridin-5(4H)-yl)methanone] | > 5000
Cc1ccc2cc([C@@H]3c4nc[nH]c4CCN3C(=O)c3ccnn3C(F)F)nn2c1 [Example 1112, (S)-(1-(difluoromethyl)-1H-pyrazol-5-yl)(4-(6-methylpyrazolo[1,5-a]pyridin-2-yl)-6,7-dihydro-1H-imidazo[4,5-c]pyridin-5(4H)-yl)methanone] | < 500
Cn1ccc(-c2nnc(C(=O)N3CCc4[nH]cnc4[C@@H]3c3cc4ccc(C(F)(F)F)cn4n3)o2)n1 [Example 1129, (R)-(5-(1-methyl-1H-pyrazol-3-yl)-1,3,4-oxadiazol-2-yl)(4-(6-(trifluoromethyl)pyrazolo[1,5-a]pyridin-2-yl)-6,7-dihydro-1H-imidazo[4,5-c]pyridin-5(4H)-yl)methanone] | 1000 to 5000
O=C(c1nnc(-c2ccn(C(F)(F)F)n2)o1)N1CCc2[nH]cnc2[C@@H]1c1cc2c(OC(F)(F)F)cccn2n1 [Example 1707, (R)-(4-(4-(trifluoromethoxy)pyrazolo[1,5-a]pyridin-2-yl)-6,7-dihydro-1H-imidazo[4,5-c]pyridin-5(4H)-yl)(5-(1-(trifluoromethyl)-1H-pyrazol-3-yl)-1,3,4-oxadiazol-2-yl)methanone] | > 5000
O=C(c1ccnn1C(F)F)N1CCc2[nH]cnc2[C@@H]1c1cc2ccccn2n1 [Example 657, (R)-(1-(difluoromethyl)-1H-pyrazol-5-yl)(4-(pyrazolo[1,5-a]pyridin-2-yl)-6,7-dihydro-1H-imidazo[4,5-c]pyridin-5(4H)-yl)methanone] | > 5000
Cc1cccn2nc([C@@H]3c4nc[nH]c4CCN3c3nc4ccccc4o3)cc12 [Example 1643, (S)-2-(4-(4-methylpyrazolo[1,5-a]pyridin-2-yl)-6,7-dihydro-1H-imidazo[4,5-c]pyridin-5(4H)-yl)benzo[d]oxazole] | 500 to 1000
CC(C)(C)c1nnc(C(=O)N2CCc3[nH]cnc3[C@H]2c2cc3cccc(Cl)n3n2)o1 [Example 1123, (S)-(5-(tert-butyl)-1,3,4-oxadiazol-2-yl)(4-(7-chloropyrazolo[1,5-a]pyridin-2-yl)-6,7-dihydro-1H-imidazo[4,5-c]pyridin-5(4H)-yl)methanone] | < 500
